Reference: ChEMBL document CHEMBL4138123, “Design, synthesis and biological evaluation of novel pyrazolochalcones as potential modulators of PI3K/Akt/mTOR pathway and inducers of apoptosis in breast cancer cells” (Eur J Med Chem, 2017)

Tests used:
Assay type in all cases: functional
T47D = test: Cytotoxicity against human T47D cells assessed as cell growth at 1 uM after 48 hrs by sulforhodamine B assay relative to control; conditions: read-out: Activity
U-251 [1] = test: Cytotoxicity against human U251 cells assessed as cell growth at 1 uM after 48 hrs by sulforhodamine B assay relative to control; conditions: U-251, 48 h, read-out: Activity
DU-145 = test: Cytotoxicity against human DU145 cells assessed as cell growth at 0.01 uM after 48 hrs by sulforhodamine B assay relative to control; conditions: DU-145, 48 h, read-out: Activity
A549 [2] = test: Cytotoxicity against human A549/ATCC cells assessed as cell growth at 0.1 uM after 48 hrs by sulforhodamine B assay relative to control; conditions: A549, 48 h, read-out: Activity
MCF7 = test: Cytotoxicity against human MCF7 cells assessed as cell growth at 100 uM after 48 hrs by sulforhodamine B assay relative to control; conditions: MCF7, 48 h, read-out: Activity
NCI-H23 = test: Cytotoxicity against human NCI-H23 cells assessed as growth inhibition after 48 hrs by sulforhodamine B assay; conditions: NCI-H23, 48 h
SNB-19 [3] = test: Cytotoxicity against human SNB19 cells assessed as cell growth at 1 uM after 48 hrs by sulforhodamine B assay relative to control; conditions: SNB-19, 48 h, read-out: Activity
RPMI-8226 = test: Cytotoxicity against human RPMI8226 cells assessed as growth inhibition after 48 hrs by sulforhodamine B assay; conditions: RPMI-8226, 48 h
PC-3 = test: Cytotoxicity against human PC3 cells assessed as growth inhibition after 48 hrs by sulforhodamine B assay; conditions: PC-3, 48 h
OVCAR-4 = test: Cytotoxicity against human OVCAR4 cells assessed as cell growth at 10 uM after 48 hrs by sulforhodamine B assay relative to control; conditions: OVCAR-4, 48 h, read-out: Activity
NCI-H522 = test: Cytotoxicity against human NCI-H522 cells assessed as cell growth at 0.01 uM after 48 hrs by sulforhodamine B assay relative to control; conditions: NCI-H522, 48 h, read-out: Activity
HCC 2998 = test: Cytotoxicity against human HCC2998 cells assessed as cell growth at 0.01 uM after 48 hrs by sulforhodamine B assay relative to control; conditions: HCC 2998, 48 h, read-out: Activity
HCT-15 = test: Cytotoxicity against human HCT15 cells assessed as cell growth at 0.01 uM after 48 hrs by sulforhodamine B assay relative to control; conditions: HCT-15, 48 h, read-out: Activity
Malme-3M = test: Cytotoxicity against human MALME-3M cells assessed as cell growth at 0.1 uM after 48 hrs by sulforhodamine B assay relative to control; conditions: read-out: Activity
ACHN = test: Cytotoxicity against human ACHN cells assessed as cell growth at 1 uM after 48 hrs by sulforhodamine B assay relative to control; conditions: read-out: Activity
HOP-62 = test: Cytotoxicity against human HOP62 cells assessed as cell growth at 10 uM after 48 hrs by sulforhodamine B assay relative to control; conditions: HOP-62, 48 h, read-out: Activity
U-251 [4] = test: Cytotoxicity against human U251 cells assessed as cell growth at 10 uM after 48 hrs by sulforhodamine B assay relative to control; conditions: U-251, 48 h, read-out: Activity
HCT-116 = test: Cytotoxicity against human HCT116 cells assessed as cell growth at 100 uM after 48 hrs by sulforhodamine B assay relative to control; conditions: HCT-116, 48 h, read-out: Activity
K562 = test: Cytotoxicity against human K562 cells assessed as cell growth at 0.01 uM after 48 hrs by sulforhodamine B assay relative to control; conditions: K562, 48 h, read-out: Activity
SK-OV-3 = test: Cytotoxicity against human SKOV3 cells assessed as cell growth at 10 uM after 48 hrs by sulforhodamine B assay relative to control; conditions: SK-OV-3, 48 h, read-out: Activity
SW-620 = test: Cytotoxicity against human SW620 cells assessed as growth inhibition after 48 hrs by sulforhodamine B assay; conditions: SW-620, 48 h
COLO 205 = test: Cytotoxicity against human COLO205 cells assessed as cell growth at 0.01 uM after 48 hrs by sulforhodamine B assay relative to control; conditions: COLO 205, 48 h, read-out: Activity
SR = test: Cytotoxicity against human SR cells assessed as cell growth at 100 uM after 48 hrs by sulforhodamine B assay relative to control; conditions: read-out: Activity
A498 = test: Cytotoxicity against human A498 cells assessed as cell growth at 0.1 uM after 48 hrs by sulforhodamine B assay relative to control; conditions: A498, 48 h, read-out: Activity
SNB-19 [5] = test: Cytotoxicity against human SNB19 cells assessed as cell growth at 0.01 uM after 48 hrs by sulforhodamine B assay relative to control; conditions: SNB-19, 48 h, read-out: Activity
SN12C [6] = test: Cytotoxicity against human SN12C cells assessed as cell growth at 100 uM after 48 hrs by sulforhodamine B assay relative to control; conditions: read-out: Activity
NCI-H322M = test: Cytotoxicity against human NCI-H322M cells assessed as growth inhibition after 48 hrs by sulforhodamine B assay
SN12C [7] = test: Cytotoxicity against human SN12C cells assessed as growth inhibition after 48 hrs by sulforhodamine B assay
OVCAR-3 [8] = test: Cytotoxicity against human OVCAR3 cells assessed as cell growth at 1 uM after 48 hrs by sulforhodamine B assay relative to control; conditions: OVCAR-3, 48 h, read-out: Activity
MDA-MB-231 = test: Cytotoxicity against human MDA-MB-231 cells assessed as cell growth at 100 uM after 48 hrs by sulforhodamine B assay relative to control; conditions: MDA-MB-231, 48 h, read-out: Activity
A549 [9] = test: Cytotoxicity against human A549/ATCC cells assessed as cell growth at 0.01 uM after 48 hrs by sulforhodamine B assay relative to control; conditions: A549, 48 h, read-out: Activity
IGROV-1 = test: Cytotoxicity against human IGROV1 cells assessed as cell growth at 0.01 uM after 48 hrs by sulforhodamine B assay relative to control; conditions: IGROV-1, 48 h, read-out: Activity
OVCAR-3 [10] = test: Cytotoxicity against human OVCAR3 cells assessed as cell growth at 0.1 uM after 48 hrs by sulforhodamine B assay relative to control; conditions: OVCAR-3, 48 h, read-out: Activity
Hs-578T = test: Cytotoxicity against human Hs 578T cells assessed as cell growth at 10 uM after 48 hrs by sulforhodamine B assay relative to control; conditions: read-out: Activity
UACC-62 = test: Cytotoxicity against human UACC62 cells assessed as growth inhibition after 48 hrs by sulforhodamine B assay; conditions: UACC-62, 48 h
[11] = read-out: LC50 (the source's name)

COc1ccc(C(=O)/C=C/c2cc(-c3ccc4c(c3)OCO4)n[nH]2)cc1OC
growth at 1 µM (T47D): 79%
growth at 1 µM (U-251 [1]): 69%
growth at 0.01 µM (DU-145): 101%
growth at 0.1 µM (A549 [2]): 96%
growth at 100 µM (MCF7): -48%
TGI (NCI-H23): 19.6 µM
CC50 (NCI-H23; [11]): 66 µM
growth at 1 µM (SNB-19 [3]): 79%
LC50 (RPMI-8226): > 100 µM
TGI (RPMI-8226): 5.24 µM
GI50 (PC-3): 2.58 µM
LC50 (PC-3): > 100 µM
TGI (PC-3): 18.2 µM
growth at 10 µM (OVCAR-4): 18%
growth at 0.01 µM (NCI-H522): 85%
growth at 0.01 µM (HCC 2998): 98%
growth at 0.01 µM (HCT-15): 92%
growth at 0.1 µM (Malme-3M): 100%
growth at 1 µM (ACHN): 94%
growth at 10 µM (HOP-62): -29%
growth at 10 µM (U-251 [4]): -25%
growth at 100 µM (HCT-116): -64%
growth at 0.01 µM (K562): 96%
growth at 10 µM (SK-OV-3): 17%
LC50 (lethal concentration, 50% net cell kill) (SW-620): 15.9 µM
TGI (SW-620): 4.81 µM
growth at 0.01 µM (COLO 205): 102%
growth at 100 µM (SR): -35%
growth at 0.1 µM (A498): 80%
growth at 0.01 µM (SNB-19 [5]): 91%
growth at 100 µM (SN12C [6]): -73%
TGI (NCI-H322M): 7.3 µM
CC50 (NCI-H322M; [11]): 29.6 µM
LC50 (SN12C [7]): 53.7 µM
TGI (SN12C [7]): 13.6 µM
growth at 1 µM (OVCAR-3 [8]): 92%
growth at 100 µM (MDA-MB-231): -86%
growth at 0.01 µM (A549 [9]): 96%
growth at 0.01 µM (IGROV-1): 100%
growth at 0.1 µM (OVCAR-3 [10]): 104%
growth at 10 µM (Hs-578T): -9%
LC50 (UACC-62): 40.9 µM
TGI (UACC-62): 14.8 µM
